Values of other authors in patent US9238073B2, “Pharmaceutical composition containing sympathomimetic amine salt and co-distillable additive” (Wyeth LLC, priority 2006, dated 2016).

Details: (R)-methamphetamine from reduction of (-)-pseudoephedrine

## (R)-methamphetamine
  psychoactivity relative to (S)-methamphetamine: one-tenth
